Source: ChEMBL document CHEMBL1159267, “Barceloneic acid A, a new farnesyl-protein transferase inhibitor from a Phoma species” (J Nat Prod, 1995)
Calls of active or inactive are those of the source. The rule behind the calls is not given here.

Assays:
[1] = target: T1, Protein farnesyltransferase (Homo sapiens, UniProt P49354+P49356); experiment: Inhibition of human recombinant FPTase up to ~300 uM by Ras farnesyl-protein-transferase assay; assay type: protein-complex assay
[2] = target: T1, Protein farnesyltransferase; experiment: Inhibition of human recombinant FPTase by Ras farnesyl-protein-transferase assay; assay type: protein-complex assay

Q: Which Activity [1] does the source give for `COc1cc(CO)c(Oc2cc(C)cc(OC)c2C(=O)O)c(OC)c1` here?
A: Its Activity is “inactive”.

Q: Which IC50 [2] does the source give for `COc1cc(O)c(Oc2cc(C)cc(O)c2C(=O)O)c(CO)c1` [BARCELONEIC ACID A] here?
A: Its IC50 is 40 µM.

Q: How did the Activity [1] turn out when `COC(=O)c1c(OC)cc(C)cc1Oc1c(CO)cc(OC)cc1OC` was run?
A: The Activity was “inactive”.

Q: How did the Activity [1] turn out when `COc1cc(CO)c(Oc2cc(C)cc(O)c2C(=O)O)c(OC)c1` was run?
A: The Activity was “inactive”.

Q: For `COc1cc(O)c(Oc2cc(C)cc(O)c2C(=O)O)c(C(=O)O)c1`, which Activity [1] is on record?
A: Its Activity is “inactive”.

Q: For `Cc1cc(O)c(C(=O)O)c(O)c1`, which Activity [1] is on record?
A: The Activity was “inactive”.

Q: For `COc1cc(O)c2c(c1)COC(=O)c1c(O)cc(C)cc1O2`, which Activity [1] is on record?
A: The Activity was “inactive”.
